Results on 16 compounds are retold here after patent US5580865A, “2,2-disubstituted cephem sulphones” (Farmitalia Carlo Erba S.r.l., priority 1992, dated 1996).

The assay deals with T1, human leukocyte elastase (HLE) (Homo sapiens, UniProt P08246).
T1 construct: purchased Calbiochem
T1 sequence (P08246 30-247 limits assumed): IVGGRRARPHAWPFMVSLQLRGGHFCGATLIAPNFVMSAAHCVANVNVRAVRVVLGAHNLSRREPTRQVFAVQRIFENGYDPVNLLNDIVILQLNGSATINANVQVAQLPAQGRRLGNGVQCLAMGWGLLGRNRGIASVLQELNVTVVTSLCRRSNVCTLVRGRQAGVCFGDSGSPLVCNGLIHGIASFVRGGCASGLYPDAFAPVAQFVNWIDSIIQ
Briefly: Kinetic parameters of HLE inhibition (fluorogenic substrate, steady-state KI^ss and K5/KI). It counts as biochemical. The settings on record: HLE (Calbiochem), 37° C., pH 7.4 phosphate buffer, 1% DMSO, 1% MeCN; for kinact/KI: read-out: K5 /KI (rate of formation of the HLE-inhibitor complex); for Ki: read-out: KI^ss (apparent dissociation constant of the HLE-inhibitor complex at steady state).

Experimental: Kinetic parameters of HLE (Calbiochem) were determined at 37° C., 0.027M pH 7.4 phosphate buffer, 1% DMSO, 1% MeCN, NaCl (I=0.15), by monitoring the release of 7-amino-4-methylcoumarin (fluorescence detection) from N-methoxysuccinyl-alanyl-prolyl-valyl-7-amido-4-methylcoumarin as the substrate, according to the equations: [formula] wherein [P], [I], [S]=product, inhibitor, and substrate concentration
Km =Michaelis constant for the enzyme substrate pair (independently determined under the same experimental conditions)

Consider `CO[C@H]1C(=O)N2C(C(=O)C(C)(C)C)=C(C)C(Cc3ccccc3)(Sc3nc(=O)c(OCc4ccccc4)nn3C)S(=O)(=O)[C@H]12` (stereo partly drawn) [Compound 46, 2-Benzyl-2-(6-benzyloxy-2,5-dihydro-2-methyl-5-oxo-1,2,4-triazin-3-yl)thio-4-tert-butylcarbonyl-7α-methoxy-3-methyl-3-cephem 1,1-dioxide], for which the kinact/KI amounted to 160000 M⁻¹ s⁻¹ and the Ki worked out at 4 nM.
The matching figures for `CO[C@H]1C(=O)N2C(C(=O)C(C)(C)C)=C(C)C(Cc3ccc([N+](=O)[O-])cc3)(Sc3nnnn3C)S(=O)(=O)[C@H]12` (stereo partly drawn) [Compound 6, 4-tert-Butylcarbonyl-7α-methoxy-3-methyl-2-(1-methyl-1,2,3,4-tetrazol-5-yl)thio-2-(4-nitrobenzyl)-3-cephem 1,1-dioxide]: 600000 M⁻¹ s⁻¹ and 1 nM.
In the case of `COc1nn(C)c(SC2(C)C(C)=C(C(=O)C(C)(C)C)N3C(=O)[C@H](OC)[C@H]3S2(=O)=O)nc1=O` (stereo partly drawn) [Compound 15, 2-(2,5-Dihydro-6-methoxy-2-methyl-5-oxo-1,2,4-triazin-3-yl)thio-4-tert-butylcarbonyl-2,3-dimethyl-7α-methoxy-3-cephem 1,1-dioxide], the kinact/KI amounted to 1.4e+06 M⁻¹ s⁻¹.
Take `CO[C@H]1C(=O)N2C(C(=O)C(C)(C)C)=C(C)C(Cc3ccccc3)(Sc3nc(=O)c(O)nn3C)S(=O)(=O)[C@H]12` (stereo partly drawn) [Compound 18, 2-Benzyl-2-(2,5-dihydro-6-hydroxy-2-methyl-5-oxo-1,2,4-triazin-3-yl)thio-4-tert-butylcarbonyl-7α-methoxy-3-methyl-3-cephem 1,1-dioxide]: the kinact/KI is 14000 M⁻¹ s⁻¹ and the Ki was found to be 16 nM.
Turning to `CO[C@H]1C(=O)N2C(C(=O)C(C)(C)C)=C(CSc3nnnn3C)C(C)(Sc3nnnn3C)S(=O)(=O)[C@H]12` (stereo partly drawn) [Compound 28, 4-tert-Butylcarbonyl-7α-methoxy-2-methyl-2-(1-methyl-1,2,3,4-tetrazol-5-yl)thio-3-(1-methyl-1,2,3,4-tetrazol-5-yl)thiomethyl-3-cephem 1,1-dioxide], the kinact/KI came to 1.4e+06 M⁻¹ s⁻¹ and the Ki worked out at 3 nM.
Consider `C=CCC1(Sc2nc(=O)c(OC(c3ccccc3)c3ccccc3)nn2C)C(C)=C(C(=O)C(C)(C)C)N2C(=O)[C@H](OC)[C@H]2S1(=O)=O` (stereo partly drawn) [Compound 24, 2-allyl-2-(6-benzhydryloxy-2,5-dihydro-2-methyl-5-oxo-1,2,4-triazin-3-yl)thio-4-tert-butylcarbonyl-7α-methoxy-3-methyl-3-cephem 1,1-dioxide], for which the kinact/KI was 93000 M⁻¹ s⁻¹ and the Ki was found to be 8 nM.
`CO[C@H]1C(=O)N2C(C(=O)C(C)(C)C)=C(C)C(Cc3ccccc3)(Sc3nnnn3C)S(=O)(=O)[C@H]12` (stereo partly drawn) [Compound 10, 2-Benzyl-4-tert-butylcarbonyl-7α-methoxy-3-methyl-2-(1-methyl-1,2,3,4-tetrazol-5-yl)thio-3-cephem 1,1-dioxide]: the kinact/KI was 110000 M⁻¹ s⁻¹ and the Ki came out at 4 nM.
Taken in the same sequence, the figures for `C=CCOC(=O)c1ccc(CC2(Sc3nnnn3C)C(C)=C(C(=O)C(C)(C)C)N3C(=O)[C@H](OC)[C@H]3S2(=O)=O)cc1` (stereo partly drawn) [Compound 31, 2-(4-allyloxycarbonylbenzyl)-4-tert-butylcarbonyl-7α-methoxy-3-methyl-2-(1-methyl-1,2,3,4-tetrazol-5-yl)thio-3-cephem 1,1-dioxide] were 560000 M⁻¹ s⁻¹ and 1.3 nM.
With `C=CCC1(Sc2nnnn2C)C(C)=C(C(=O)C(C)(C)C)N2C(=O)[C@H](OC)[C@H]2S1(=O)=O` (stereo partly drawn) [Compound 7, 2-Allyl-4-tert-butylcarbonyl-7α-methoxy-3-methyl-2-(1-methyl-1,2,3,4-tetrazol-5-yl)thio-3-cephem 1,1-dioxide], the kinact/KI turned out to be 360000 M⁻¹ s⁻¹ and the Ki came to 3 nM.
Regarding `CO[C@H]1C(=O)N2C(C(=O)C(C)(C)C)=C(C)C(Cc3ccc(C(=O)O)cc3)(Sc3nnnn3C)S(=O)(=O)[C@H]12` (stereo partly drawn) [Compound 32, 4-tert-Butylcarbonyl-2-(4-carboxybenzyl)-7α-methoxy-3-methyl-2-(1-methyl-1,2,3,4-tetrazol-5-yl)thio-3-cephem 1,1-dioxide], the kinact/KI turned out to be 200000 M⁻¹ s⁻¹ and the Ki is 7 nM.
Consider `CO[C@H]1C(=O)N2C(C(=O)C(C)(C)C)=C(CSc3nnnn3C)C(Sc3nnnn3C)S(=O)(=O)C12` (some centres unmarked) [Ref. 2, reference compound], for which the Ki was 93 nM.
Regarding `CO[C@H]1C(=O)N2C(C(=O)C(C)(C)C)=C(C)C(C)(Sc3nnnn3C)S(=O)(=O)[C@H]12` (stereo partly drawn) [Compound 5, 4-tert-Butylcarbonyl-2,3-dimethyl-7α-methoxy-2-(1-methyl-1,2,3,4-tetrazol-5-yl)thio-3-cephem 1,1-dioxide], the kinact/KI worked out at 570000 M⁻¹ s⁻¹ and the Ki stood at 1.9 nM.
Regarding `CO[C@H]1C(=O)N2C(C(=O)C(C)(C)C)=C(C)C(C)(Sc3nc(=O)c(O)nn3C)S(=O)(=O)[C@H]12` (stereo partly drawn) [Compound 12, 2-(2,5-Dihydro-6-hydroxy-2-methyl-5-oxo-1,2,4-triazin-3-yl)thio-4-tert-butylcarbonyl-2,3-dimethyl-7α-methoxy-3-cephem 1,1-dioxide], the kinact/KI came to 37000 M⁻¹ s⁻¹ and the Ki stood at 30 nM.
With `CO[C@H]1C(=O)N2C(C(=O)C(C)(C)C)=C(C)C(C)(Sc3nc(=O)c(OC(c4ccccc4)c4ccccc4)nn3C)S(=O)(=O)[C@H]12` (stereo partly drawn) [Compound 11, 2-(6-Benzhydryloxy-2-methyl-5-oxo-2,5-dihydro-1,2,4-triazin-3-yl)thio-4-tert-butylcarbonyl-2,3-dimethyl-7α-methoxy-3-cephem 1,1-dioxide], the kinact/KI is 1.3e+07 M⁻¹ s⁻¹ and the Ki was under 1 nM.
For the compound `CO[C@H]1C(=O)N2C(C(=O)N3CCCC3)=C(CSc3nc(=O)c(O)nn3C)CS(=O)(=O)[C@H]12` [Ref. 3, reference compound], the kinact/KI was 1500 M⁻¹ s⁻¹.
Consider `CO[C@H]1C(=O)N2C(C(=O)C(C)(C)C)=C(C)C(Cc3ccc(C(=O)OC(c4ccccc4)c4ccccc4)cc3)(Sc3nnnn3C)S(=O)(=O)[C@H]12` (stereo partly drawn) [Compound 30, 2-(4-benzhydryloxycarbonylbenzyl)-4-tert-Butylcarbonyl-7α-methoxy-3-methyl-2-(1-methyl-1,2,3,4-tetrazol-5-yl)thio-3-cephem1,1-dioxide], for which the kinact/KI is 77000 M⁻¹ s⁻¹ and the Ki turned out to be 1 nM.
